{
  "source": "paper PMC4457840",
  "about": "“Differential Inhibition of Signal Peptide Peptidase Family Members by Established γ-Secretase Inhibitors” (PLoS ONE, 2015)",
  "key": {"SPPL2a [1]": {"biological_target": "T1, SPPL2a (Homo sapiens, UniProt Q8TCT8)", "T1 construct": "expressed in transfected cells; host or cells: HEK 293T", "T1 sequence (Q8TCT8 26-520)": "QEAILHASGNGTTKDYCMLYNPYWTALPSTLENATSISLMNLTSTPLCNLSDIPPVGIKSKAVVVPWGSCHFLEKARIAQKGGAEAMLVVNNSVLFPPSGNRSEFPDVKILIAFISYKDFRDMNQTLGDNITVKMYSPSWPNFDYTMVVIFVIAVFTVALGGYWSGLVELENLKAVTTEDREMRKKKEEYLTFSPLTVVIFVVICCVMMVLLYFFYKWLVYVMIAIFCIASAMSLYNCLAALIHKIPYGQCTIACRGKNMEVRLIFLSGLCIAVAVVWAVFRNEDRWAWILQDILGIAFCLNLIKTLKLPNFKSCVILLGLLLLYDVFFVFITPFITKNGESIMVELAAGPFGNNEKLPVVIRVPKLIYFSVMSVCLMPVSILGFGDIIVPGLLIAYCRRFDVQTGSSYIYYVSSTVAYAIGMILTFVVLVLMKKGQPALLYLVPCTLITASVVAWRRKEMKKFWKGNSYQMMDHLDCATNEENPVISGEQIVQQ", "test": "FBA/SPPL2a co-transfected HEK 293T cell cleavage assay (Aβ ELISA, Western blot)", "type": "cell-based", "from_the_text": "(§1) Expression constructs in pcDNA6 for COOH-terminal FLAG (DYKDDDDK) and strep (WSHPQFEK) tagged SPPL2a, SPPL2b, hSPP and pSPP were generated as previously described. Untagged versions of all enzymes were also made and ligated into the pAG3 vector. Substrates (Fig 1) were designed as follows: FLAG-BRI2_1-81- Aβ1-25/K16A (FBA). The K16A mutation was incorporated to prevent potential α-secretase cleavage that would preclude ELISA based detection of the released COOH-terminal fragment. The substrate DNA was cloned into the expression vector pcDNA6. Constructs were confirmed by DNA sequencing. The overexpression of substrates was performed by transiently transfecting human embryonic kidney (HEK 293T) cells with or without SPP/SPPL vectors. Cells were grown in DMEM media supplemented with Hyclone 10% fetal bovine serum (GE, Logan, Utah, USA) and 1% penicillin/streptomycin (Life Technologies, Grand Island, NY, USA). Briefly, 2.7 μg DNA was applied to a 75% confluent 6 well plate (Corning, Tewksbury, MA, USA) using the polycation polyethylenimine (PEI) transfection method. Inhibitor testing experiments were conducted in 48 well plates with appropriately adjusted amounts of DNA and PEI and incubated 12–16 hours, after which the growth medium was replaced with fresh medium. DMSO (Sigma, St. Louis, MO, USA) and GSIs were added at the appropriate concentration. The GSIs, L685,458 and Compound W were purchased from Tocris (Tocris, Bristol, UK). (Z-LL)2 ketone, Compound E, DAPT, GSI II were purchased from Calbiochem (Merck Millipore, Billerica, MA, USA). LY-411,575 was synthesized by A. Fauq at the Mayo Clinic Chemical Core. Twenty-four hours later, the medium was collected for assay by ELISA and MS. A20 cells (TIB-208) (ATCC, Manassas, VA, USA) were cultured in RPMI-1640 medium (ATCC) supplied with 10% fetal bovine serum, 1% penicillin/streptomycin and 0.05 mM 2-mercaptoethanol (Life Technologies). At the density of 5x10^5 cells/ml, A20 cells were spun down at 1000 g for 2 min and resuspended in fresh medium supplied with DMSO or GSIs and incubated for 16 hr.\n(§2) Sandwich ELISAs used for Aβ detection were performed as previously described. Briefly, Aβ and Aβ adducts with substrate TMD in conditioned media was captured with Ab5 antibody (human Aβ1–16 specific) and detected with horseradish peroxidase mAb 4G8 (Covance, Princeton, NJ, USA). Synthetic Aβ1–40 was used as standard. All ELISAs were developed with TMB substrate (KPL, Gaithersburg, Maryland, USA). Bis-Tris precast gels (Biorad, Hercules, CA, USA) were used for all SDS-PAGE. Monoclonal anti-FLAG M2 antibody (Sigma) and Aβ1–16 antibody 6E10 (Covance) were used for Western blotting. Antisera against SPPL2a, SPPL2b, hSPP and pSPP were generated as previously described and were used at dilution of 1:1000 for Western blotting. Anti-CD74 In-1 antibody (BD Bioscience, San Jose, CA, USA) was used for A20 cell lysate Western blotting at dilution of 1:1000."}, "hSPP": {"biological_target": "T2, hSPP (Homo sapiens, UniProt Q8TCT9)", "T2 construct": "expressed in transfected cells; host or cells: HEK 293T", "T2 sequence (Q8TCT9 1-377)": "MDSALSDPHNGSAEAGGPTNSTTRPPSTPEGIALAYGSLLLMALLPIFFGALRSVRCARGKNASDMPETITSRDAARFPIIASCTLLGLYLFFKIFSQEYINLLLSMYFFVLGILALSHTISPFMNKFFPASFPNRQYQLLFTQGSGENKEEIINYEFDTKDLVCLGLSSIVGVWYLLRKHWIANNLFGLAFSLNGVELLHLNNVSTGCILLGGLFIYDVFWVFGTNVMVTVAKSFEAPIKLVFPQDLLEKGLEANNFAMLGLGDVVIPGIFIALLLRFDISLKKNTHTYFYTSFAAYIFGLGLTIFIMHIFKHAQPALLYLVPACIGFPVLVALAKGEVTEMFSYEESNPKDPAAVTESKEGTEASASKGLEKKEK", "test": "FBA/hSPP co-transfected HEK 293T cell cleavage assay (Aβ ELISA, Western blot, IP/MS)", "type": "cell-based", "details": "for IC50: HEK cells, 24 h, xAβ1-25/K16A by Aβ ELISA, mean ± standard error, read-out: IC50 on FBA/SPPL co-transfected cells", "from_the_text": "as §1, §2\n(§3) Immunoprecipitation and mass spectrometry of xAβ1–25 in conditioned media were performed as previously described. In this study, 10 ml conditioned media were used for each experiment. ICDs were immunoprecipitated with anti-FLAG M2 magnetic beads. Cells from 10 cm dished treated with DMSO or 20 μM LY-411,575 were used for each test."}, "pSPP": {"biological_target": "pSPP (Plasmodium falciparum, UniProt Q8IKQ9)", "sequence (Q8IKQ9 entry or part of it)": "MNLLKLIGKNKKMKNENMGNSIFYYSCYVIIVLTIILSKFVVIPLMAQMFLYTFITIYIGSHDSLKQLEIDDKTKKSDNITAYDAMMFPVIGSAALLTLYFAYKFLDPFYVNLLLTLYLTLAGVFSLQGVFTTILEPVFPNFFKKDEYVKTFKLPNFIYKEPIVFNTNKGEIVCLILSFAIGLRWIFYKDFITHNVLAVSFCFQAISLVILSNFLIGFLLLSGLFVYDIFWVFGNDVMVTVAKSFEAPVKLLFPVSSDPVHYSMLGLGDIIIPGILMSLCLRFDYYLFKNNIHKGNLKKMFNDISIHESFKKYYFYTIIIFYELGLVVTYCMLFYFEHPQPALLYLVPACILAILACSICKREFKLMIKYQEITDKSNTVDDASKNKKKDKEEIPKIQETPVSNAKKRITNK", "test": "FBA/pSPP co-transfected HEK 293T cell cleavage assay (Aβ ELISA, Western blot, IP/MS)", "type": "cell-based, human", "details": "for inhibition of xAβ1-25/K16A secretion (in words): 25 μM, ELISA", "from_the_text": "as §1, §2, §3"}, "SPPL2b": {"biological_target": "T3, SPPL2b (Homo sapiens, UniProt Q8TCT7)", "T3 construct": "expressed in transfected cells; host or cells: HEK 293T", "T3 sequence (Q8TCT7 26-592)": "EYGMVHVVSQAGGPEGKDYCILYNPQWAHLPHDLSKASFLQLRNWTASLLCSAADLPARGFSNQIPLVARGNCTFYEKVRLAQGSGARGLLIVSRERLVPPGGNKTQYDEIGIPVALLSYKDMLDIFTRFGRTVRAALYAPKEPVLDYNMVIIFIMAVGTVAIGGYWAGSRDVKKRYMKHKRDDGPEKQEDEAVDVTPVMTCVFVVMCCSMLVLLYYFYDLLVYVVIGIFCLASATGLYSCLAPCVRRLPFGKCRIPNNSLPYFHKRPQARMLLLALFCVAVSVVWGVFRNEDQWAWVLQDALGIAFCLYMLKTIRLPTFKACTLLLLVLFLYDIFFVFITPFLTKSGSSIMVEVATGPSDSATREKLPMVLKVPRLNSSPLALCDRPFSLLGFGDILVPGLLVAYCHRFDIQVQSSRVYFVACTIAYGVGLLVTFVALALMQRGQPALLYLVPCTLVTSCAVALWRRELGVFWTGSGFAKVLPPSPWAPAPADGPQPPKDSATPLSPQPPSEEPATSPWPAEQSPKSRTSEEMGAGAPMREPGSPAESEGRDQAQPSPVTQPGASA", "test": "FBA/SPPL2b co-transfected HEK 293T cell cleavage assay (Aβ ELISA, Western blot, IP/MS)", "type": "cell-based", "from_the_text": "as §1, §2, §3"}, "SPP": {"system": "SPP", "set-up": "method as in PMID 15252014, PMID 19337374, PMID 12621027", "details": "cited from earlier work"}, "SPPL2a [2]": {"system": "T4, SPPL2a", "T4 construct": "endogenous SPPL2a cleavage of CD74 in a murine B-Cell line; host or cells: A20 mouse B lymphocyte cells", "test": "Endogenous CD74 NTF P8 turnover in non-overexpressing A20 cells (Western blot, In-1 antibody)", "type": "cell-based, mouse", "experimental": "as §1, with “Untagged” for “Expression constructs in pcDNA6 for COOH-terminal FLAG (DYKDDDDK) and strep (WSHPQFEK) tagged SPPL2a, SPPL2b, hSPP and pSPP were generated as previously described. Untagged”\nas §2"}, "[3]": {"details": "HEK cells, 24 h, xAβ1-25/K16A by Aβ ELISA, mean ± standard error, read-out: IC50 on FBA/SPPL co-transfected cells"}, "[4]": {"details": "HEK-293T, 25 μM, ELISA, DMSO = 100%, read-out: inhibition of the SPP/SPPLs"}, "[5]": {"details": "number in parenthesis in Table 3"}},
  "note": "Entries after “also recorded” stand apart in the source; their conditions may differ.",
  "data": [
    {"smiles": "O=C(O)c1cc(Oc2ccc([N+](=O)[O-])cc2)cc(Oc2ccc([N+](=O)[O-])cc2)c1", "note": "[Comp W, Compound W]", "values": [
      {"measurement": "inhibition of xAβ1-25/K16A secretion (in words)", "setting": "SPPL2a [1]; 25 μM, ELISA", "result": "does not show inhibition"},
      {"measurement": "inhibition of xAβ1-25/K16A secretion (in words)", "setting": "hSPP; 25 μM, ELISA", "result": "does not show inhibition"},
      {"measurement": "inhibition of xAβ1-25/K16A secretion (in words)", "setting": "pSPP; pSPP", "result": "does not show inhibition"},
      {"measurement": "inhibition of xAβ1-25/K16A secretion (in words)", "setting": "SPPL2b; 25 μM, ELISA", "result": "does not show inhibition"}
    ]},
    {"smiles": "CC(C)C[C@H](NC(=O)[C@H](Cc1ccccc1)C[C@@H](O)[C@H](Cc1ccccc1)NC(=O)OC(C)(C)C)C(=O)N[C@@H](Cc1ccccc1)C(N)=O", "note": "[L685,458]", "values": [
      {"measurement": "inhibition of xAβ1-25/K16A secretion (in words)", "setting": "SPPL2a [1]; 25 μM, ELISA", "result": "largely inhibited"},
      {"measurement": "IC50", "setting": "SPPL2a [1]; [3]", "result": "570 ± 90", "unit": "nM"},
      {"measurement": "inhibition at 25 µM", "setting": "SPPL2a [1]; [4]", "result": "> 90", "unit": "%"},
      {"measurement": "rank order of inhibition", "setting": "SPPL2a [1]; [5]", "result": 3},
      {"measurement": "inhibition of xAβ1-25/K16A secretion (in words)", "setting": "hSPP; 25 μM, ELISA", "result": "largely inhibited"},
      {"measurement": "IC50", "setting": "hSPP", "result": "319 ± 91", "unit": "nM"},
      {"measurement": "inhibition at 25 µM", "setting": "hSPP; [4]", "result": "> 90", "unit": "%"},
      {"measurement": "rank order of inhibition", "setting": "hSPP; [5]", "result": 2},
      {"measurement": "inhibition of SPP activity", "setting": "SPP", "result": "inhibit the activity of SPP"},
      {"measurement": "IC50", "setting": "pSPP", "result": "161 ± 97", "unit": "nM"},
      {"measurement": "inhibition at 25 µM", "setting": "pSPP; HEK-293T, read-out: inhibition of the SPP/SPPLs", "result": "> 90", "unit": "%"},
      {"measurement": "inhibition of xAβ1-25/K16A secretion (in words)", "setting": "pSPP; pSPP", "result": "largely inhibited"},
      {"measurement": "rank order of inhibition", "setting": "pSPP; pSPP, number in parenthesis in Table 3", "result": 1},
      {"measurement": "inhibition of xAβ1-25/K16A secretion (in words)", "setting": "SPPL2b; 25 μM, ELISA", "result": "largely inhibited"},
      {"measurement": "IC50", "setting": "SPPL2b; [3]", "result": "876 ± 133", "unit": "nM"},
      {"measurement": "inhibition at 25 µM", "setting": "SPPL2b; [4]", "result": "> 90", "unit": "%"},
      {"measurement": "rank order of inhibition", "setting": "SPPL2b; [5]", "result": 1}
    ]},
    {"smiles": "C[C@H](NC(=O)Cc1cc(F)cc(F)c1)C(=O)N[C@@H]1C(=O)N(C)c2ccccc2-c2ccccc21", "note": "[DBZ]", "values": [
      {"measurement": "inhibition of xAβ1-25/K16A secretion (in words)", "setting": "hSPP; 25 μM, ELISA", "result": "inhibited; also recorded: selectively inhibit hSPP cleavage"},
      {"measurement": "inhibition of FBA cleavage by Western blot", "setting": "hSPP; Fig 3C lower panel", "result": "efficiently inhibited"},
      {"measurement": "IC50", "setting": "hSPP", "result": "948 ± 93", "unit": "nM"},
      {"measurement": "dose response of P8 fragment stabilization (in words)", "setting": "SPPL2a [2]; different doses", "result": "stabilized the P8 fragment in a dose dependent manner; also recorded: much weaker inhibition"},
      {"measurement": "concentration at which effect was first seen", "setting": "SPPL2a [2]; dose response", "result": 1, "unit": "µM"},
      {"measurement": "inhibition of FBA cleavage (10 kD ICD) by Western blot", "setting": "SPPL2b; Fig 3C upper panel", "result": "slightly reduce"}
    ]}
  ]
}
